Laboratory results as given in ChEMBL document CHEMBL5325492, “PROTACs Targeting MLKL Protect Cells from Necroptosis” (J Med Chem, 2023).
Activity calls are given as the source filed them. No cut-off for these calls is given here.

Tests used:
[1] = molecular target: T1, Mixed lineage kinase domain-like protein (Homo sapiens) (UniProt Q8NB16); experiment: Induction of MLKL degradation in human HT-29 cells assessed as remaining protein level in cell lysates incubated for 24 hrs measured by capillary immunoassay; assay type: subcellular
T1 sequence (whole entry): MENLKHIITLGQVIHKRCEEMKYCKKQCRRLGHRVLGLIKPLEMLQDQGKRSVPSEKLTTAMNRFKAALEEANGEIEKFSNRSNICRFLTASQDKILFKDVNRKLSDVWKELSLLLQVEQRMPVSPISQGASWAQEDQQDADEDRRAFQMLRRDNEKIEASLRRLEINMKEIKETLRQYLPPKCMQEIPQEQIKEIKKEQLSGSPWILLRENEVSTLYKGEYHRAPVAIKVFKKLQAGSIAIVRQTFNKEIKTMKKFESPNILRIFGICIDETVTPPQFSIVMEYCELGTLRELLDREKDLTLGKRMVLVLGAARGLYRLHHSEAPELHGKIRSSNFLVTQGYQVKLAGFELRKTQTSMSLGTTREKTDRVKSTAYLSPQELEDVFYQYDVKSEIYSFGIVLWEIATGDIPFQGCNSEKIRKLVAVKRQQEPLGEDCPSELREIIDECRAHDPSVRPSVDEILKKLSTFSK

HT-29 [2] = experiment: Cytotoxicity against human HT-29 cells assessed as cell viability at 10 uM incubated for 24 hrs in presence of 3-(4-((difluoromethyl)sulfonamido)phenyl)-5-((3-methoxyphenyl)amino)-1H-pyrazole-4-carboxamide by CellTiter-Glo assay; assay type: toxicity, cell-based; conditions: ht-29, 24 h
[3] = molecular target: T2, Receptor-interacting serine/threonine-protein kinase 1 (Homo sapiens) (UniProt Q13546); experiment: Binding affinity to wild type human RIPK1 (M1/K305) expressed in bacterial expression system measured upto 10 uM by Eurofins-DiscoverX KINOMEscanTM KdELECT assay
T2 sequence (whole entry): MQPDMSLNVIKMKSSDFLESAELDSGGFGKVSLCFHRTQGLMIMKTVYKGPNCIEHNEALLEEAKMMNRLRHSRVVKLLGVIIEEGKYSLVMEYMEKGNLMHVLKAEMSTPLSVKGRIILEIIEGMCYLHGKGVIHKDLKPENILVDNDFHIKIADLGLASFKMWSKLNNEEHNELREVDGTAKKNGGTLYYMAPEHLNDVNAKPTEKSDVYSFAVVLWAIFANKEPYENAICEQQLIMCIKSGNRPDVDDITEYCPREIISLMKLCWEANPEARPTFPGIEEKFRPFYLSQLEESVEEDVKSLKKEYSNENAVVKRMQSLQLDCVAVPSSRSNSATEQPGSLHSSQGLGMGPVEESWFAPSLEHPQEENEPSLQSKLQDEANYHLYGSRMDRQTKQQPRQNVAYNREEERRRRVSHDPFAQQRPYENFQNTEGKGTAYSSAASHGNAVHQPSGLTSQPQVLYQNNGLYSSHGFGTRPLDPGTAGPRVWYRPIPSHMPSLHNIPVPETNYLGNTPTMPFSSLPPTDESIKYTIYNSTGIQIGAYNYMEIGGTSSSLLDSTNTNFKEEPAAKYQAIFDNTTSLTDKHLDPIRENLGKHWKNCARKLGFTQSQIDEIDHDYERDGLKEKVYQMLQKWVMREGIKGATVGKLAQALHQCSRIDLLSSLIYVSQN

[4] = molecular target: T3, Protein cereblon/Mixed lineage kinase domain-like protein (Homo sapiens, UniProt Q8NB16+Q96SW2); experiment: PROTAC activity at CRBN/MLKL in human HT29 cells assessed as remaining protein level in cell lysates at 10 uM incubated upto 8 hrs measured by capillary immunoassay relative to vehicle treated control; assay type: subcellular; conditions: HT-29
Target sequence in this assay (Q96SW2 whole entry, looked up, one chain of several, the tested form may be a part): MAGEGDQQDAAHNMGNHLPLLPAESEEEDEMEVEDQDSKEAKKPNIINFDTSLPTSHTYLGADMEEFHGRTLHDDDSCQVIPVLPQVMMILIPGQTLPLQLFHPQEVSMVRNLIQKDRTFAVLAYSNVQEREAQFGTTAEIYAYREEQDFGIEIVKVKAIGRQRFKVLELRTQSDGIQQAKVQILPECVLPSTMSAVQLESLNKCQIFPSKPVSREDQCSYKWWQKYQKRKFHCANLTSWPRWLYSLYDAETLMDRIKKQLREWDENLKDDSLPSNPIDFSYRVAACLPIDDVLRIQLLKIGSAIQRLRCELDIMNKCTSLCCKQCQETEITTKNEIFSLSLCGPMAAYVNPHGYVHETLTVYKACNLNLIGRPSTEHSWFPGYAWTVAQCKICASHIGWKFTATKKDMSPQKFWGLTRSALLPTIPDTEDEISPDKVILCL

[5] = molecular target: Protein cereblon/Mixed lineage kinase domain-like protein (Mus musculus) (UniProt Q8C7D2+Q9D2Y4); experiment: PROTAC activity at CRBN/MLKL in mouse NIH-3T3 cells assessed as remaining protein level in cell lysates at 0.1 to 10 uM incubated for 24 hrs measured by capillary immunoassay; assay type: subcellular; conditions: dose 0.1-10 µM
Sequence of Protein cereblon/Mixed lineage kinase domain-like protein (Mus musculus) (Q8C7D2 whole entry, looked up, the tested form may be a part): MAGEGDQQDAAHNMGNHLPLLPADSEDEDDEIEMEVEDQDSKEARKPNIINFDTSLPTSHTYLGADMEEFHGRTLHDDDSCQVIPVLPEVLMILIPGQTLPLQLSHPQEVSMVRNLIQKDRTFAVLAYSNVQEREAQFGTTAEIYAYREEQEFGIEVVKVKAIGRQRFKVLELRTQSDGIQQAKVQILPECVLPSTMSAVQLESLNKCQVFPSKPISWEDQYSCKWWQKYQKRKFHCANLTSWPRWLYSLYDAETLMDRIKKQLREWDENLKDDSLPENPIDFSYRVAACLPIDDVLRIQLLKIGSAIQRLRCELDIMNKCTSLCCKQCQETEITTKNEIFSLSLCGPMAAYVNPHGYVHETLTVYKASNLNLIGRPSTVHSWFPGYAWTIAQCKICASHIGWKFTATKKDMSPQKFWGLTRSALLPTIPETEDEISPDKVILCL
Sequence of Protein cereblon/Mixed lineage kinase domain-like protein (Mus musculus) (Q9D2Y4 whole entry, looked up, the tested form may be a part): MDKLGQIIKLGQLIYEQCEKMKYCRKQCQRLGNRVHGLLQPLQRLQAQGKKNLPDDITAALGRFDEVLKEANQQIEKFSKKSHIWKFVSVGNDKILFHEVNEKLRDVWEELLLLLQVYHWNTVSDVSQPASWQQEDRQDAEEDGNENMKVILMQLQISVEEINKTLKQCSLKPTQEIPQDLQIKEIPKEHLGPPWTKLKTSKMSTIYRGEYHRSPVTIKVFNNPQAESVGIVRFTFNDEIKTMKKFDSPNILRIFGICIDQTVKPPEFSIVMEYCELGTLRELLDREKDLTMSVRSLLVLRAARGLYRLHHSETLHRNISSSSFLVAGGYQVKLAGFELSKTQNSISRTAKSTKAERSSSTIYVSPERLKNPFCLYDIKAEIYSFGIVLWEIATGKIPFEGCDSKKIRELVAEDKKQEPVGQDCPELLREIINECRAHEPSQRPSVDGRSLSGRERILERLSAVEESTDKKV

[6] = molecular target: T3, Protein cereblon/Mixed lineage kinase domain-like protein; experiment: PROTAC activity at CRBN/MLKL in human MKN74 cells assessed as remaining protein level in cell lysates at 0.1 to 10 uM incubated for 24 hrs measured by capillary immunoassay; assay type: subcellular; conditions: dose 0.1-10 µM
Target sequence in this assay (Q96SW2 whole entry, looked up, one chain of several, the tested form may be a part): as the sequence (Q96SW2 whole entry, looked up, one chain of several, the tested form may be a part) above

[7] = molecular target: Receptor-interacting serine/threonine-protein kinase 3 (Homo sapiens) (UniProt Q9Y572); experiment: Binding affinity to wild type human RIPK3 (M1/Q307) expressed in bacterial expression system measured upto 10 uM by Eurofins-DiscoverX KINOMEscanTM KdELECT assay
Sequence of Receptor-interacting serine/threonine-protein kinase 3 (Homo sapiens) (Q9Y572 whole entry, looked up, the tested form may be a part): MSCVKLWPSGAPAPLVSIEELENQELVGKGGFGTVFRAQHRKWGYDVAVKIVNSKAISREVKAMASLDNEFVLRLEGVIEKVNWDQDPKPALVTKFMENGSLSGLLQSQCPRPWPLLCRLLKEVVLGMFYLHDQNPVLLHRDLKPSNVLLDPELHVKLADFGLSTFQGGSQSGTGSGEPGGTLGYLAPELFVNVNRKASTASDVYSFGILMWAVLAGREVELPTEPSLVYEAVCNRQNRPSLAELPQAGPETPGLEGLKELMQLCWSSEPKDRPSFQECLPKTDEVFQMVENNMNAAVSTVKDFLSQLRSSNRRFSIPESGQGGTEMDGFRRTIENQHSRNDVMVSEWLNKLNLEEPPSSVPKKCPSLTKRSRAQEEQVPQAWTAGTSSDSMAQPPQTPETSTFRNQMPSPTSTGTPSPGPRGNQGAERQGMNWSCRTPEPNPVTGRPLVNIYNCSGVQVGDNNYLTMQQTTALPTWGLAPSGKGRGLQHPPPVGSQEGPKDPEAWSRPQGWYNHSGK

[8] = molecular target: T3, Protein cereblon/Mixed lineage kinase domain-like protein; experiment: PROTAC activity at CRBN/MLKL in TSZ-induced human HT29 cells assessed as suppression of phosphorylated protein in cell lysates at 10 uM incubated for 8 hrs measured by capillary immunoassay; assay type: subcellular; conditions: HT-29
Target sequence in this assay (Q96SW2 whole entry, looked up, one chain of several, the tested form may be a part): as the sequence (Q96SW2 whole entry, looked up, one chain of several, the tested form may be a part) above

[9] = molecular target: Protein cereblon/Receptor-interacting serine/threonine-protein kinase 1 (Homo sapiens) (UniProt Q13546+Q96SW2); experiment: PROTAC activity at CRBN/RIPK1 in human HT29 cells assessed as remaining protein level in cell lysates at 10 uM incubated for 24 hrs measured by capillary immunoassay relative to vehicle treated control; assay type: subcellular; conditions: HT-29
Sequence of Protein cereblon/Receptor-interacting serine/threonine-protein kinase 1 (Homo sapiens) (Q96SW2 whole entry, looked up, one chain of several, the tested form may be a part): as above

[10] = molecular target: T3, Protein cereblon/Mixed lineage kinase domain-like protein; experiment: PROTAC activity at CRBN/MLKL in human HT-29 cells assessed as degraded protein level in cell lysates incubated for 24 hrs measured by capillary immunoassay relative to vehicle treated control; assay type: subcellular
[11] = molecular target: T3, Protein cereblon/Mixed lineage kinase domain-like protein; experiment: PROTAC activity at CRBN/MLKL in human HT29 cells assessed as remaining protein level in cell lysates at 10 uM incubated upto 5 hrs measured by capillary immunoassay relative to vehicle treated control; assay type: subcellular; conditions: HT-29
Target sequence in this assay (Q96SW2 whole entry, looked up, one chain of several, the tested form may be a part): as above

HT-29 [12] = experiment: Cytotoxicity against human HT-29 cells assessed as cell viability at 10 uM incubated for 24 hrs in presence of lenalidomide by CellTiter-Glo assay; assay type: toxicity, cell-based; conditions: ht-29, 24 h
[13] = molecular target: T3, Protein cereblon/Mixed lineage kinase domain-like protein; experiment: PROTAC activity at CRBN/MLKL in TSZ-induced human HT29 cells assessed as remaining protein level in cell lysates preincubated with MG-132 for 30 mins followed by treated at 10 uM for 8 hrs measured by capillary immunoassay; assay type: subcellular; conditions: HT-29
Target sequence in this assay (Q96SW2 whole entry, looked up, one chain of several, the tested form may be a part): as above

[14] = molecular target: T3, Protein cereblon/Mixed lineage kinase domain-like protein; experiment: PROTAC activity at CRBN/MLKL in TSZ-induced human HT29 cells assessed as suppression of phosphorylated protein in cell lysates at 10 uM incubated for 4 hrs measured by capillary immunoassay; assay type: subcellular; conditions: HT-29
Target sequence in this assay (Q96SW2 whole entry, looked up, one chain of several, the tested form may be a part): as above

[15] = molecular target: T3, Protein cereblon/Mixed lineage kinase domain-like protein; experiment: PROTAC activity at CRBN/MLKL in human HK-2 cells assessed as remaining protein level in cell lysates at 0.1 to 10 uM incubated for 24 hrs measured by capillary immunoassay; assay type: subcellular; conditions: dose 0.1-10 µM
[16] = molecular target: T3, Protein cereblon/Mixed lineage kinase domain-like protein; experiment: PROTAC activity at CRBN/MLKL in human HEK-a cells assessed as remaining protein level in cell lysates at 0.1 to 10 uM incubated for 24 hrs measured by capillary immunoassay; assay type: subcellular; conditions: dose 0.1-10 µM
[17] = molecular target: T3, Protein cereblon/Mixed lineage kinase domain-like protein; experiment: PROTAC activity at CRBN/MLKL in human HT29 cells assessed as remaining protein level in cell lysates incubated for 72 hrs measured by capillary immunoassay; assay type: subcellular; conditions: HT-29
[18] = molecular target: Protein cereblon/Receptor-interacting serine/threonine-protein kinase 2 (Homo sapiens) (UniProt O43353+Q96SW2); experiment: PROTAC activity at CRBN/RIPK2 in human HT29 cells assessed as remaining protein level in cell lysates at 10 uM incubated for 24 hrs measured by capillary immunoassay relative to vehicle treated control; assay type: subcellular; conditions: HT-29
Sequence of Protein cereblon/Receptor-interacting serine/threonine-protein kinase 2 (Homo sapiens) (O43353 whole entry, looked up, the tested form may be a part): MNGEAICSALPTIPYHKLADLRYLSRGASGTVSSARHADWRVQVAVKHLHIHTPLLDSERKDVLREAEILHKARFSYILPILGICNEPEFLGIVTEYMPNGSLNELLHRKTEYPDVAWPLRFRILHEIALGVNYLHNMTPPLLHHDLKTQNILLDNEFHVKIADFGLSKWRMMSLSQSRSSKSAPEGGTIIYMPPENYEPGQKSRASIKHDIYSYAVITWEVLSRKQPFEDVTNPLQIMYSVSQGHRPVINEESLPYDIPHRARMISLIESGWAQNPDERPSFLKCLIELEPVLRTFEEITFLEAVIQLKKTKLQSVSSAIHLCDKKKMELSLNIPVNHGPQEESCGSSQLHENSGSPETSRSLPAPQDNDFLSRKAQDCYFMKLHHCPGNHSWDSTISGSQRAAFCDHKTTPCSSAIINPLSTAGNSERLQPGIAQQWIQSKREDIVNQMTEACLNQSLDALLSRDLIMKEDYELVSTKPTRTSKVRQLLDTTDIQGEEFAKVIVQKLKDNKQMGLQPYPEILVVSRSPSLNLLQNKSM
Sequence of Protein cereblon/Receptor-interacting serine/threonine-protein kinase 2 (Homo sapiens) (Q96SW2 whole entry, looked up, the tested form may be a part): as the sequence (Q96SW2 whole entry, looked up, one chain of several, the tested form may be a part) above

[19] = molecular target: T3, Protein cereblon/Mixed lineage kinase domain-like protein; experiment: PROTAC activity at CRBN/MLKL in human HT-29 cells assessed as degraded protein level in cell lysates at 10 uM incubated for 24 hrs measured by capillary immunoassay relative to vehicle treated control; assay type: subcellular
HT-29 [20] = experiment: Protection against TSZ-induced necroptosis in human HT-29 cells assessed as cell viability incubated for 24 hrs by CellTiter Glo assay; conditions: HT-29, 24 h

Activity [1]: inactive
Activity [3]: inactive
Activity [4]: Active
Activity [5]: Active
Activity [6]: Active
Activity [7]: inactive
Activity [8]: Active
Activity [9]: inactive
EC50 [10]: 2400 nM
Activity ([10]; dose 0.1-10 µM): Dose-Dependent Effect
Activity [11]: < 10%
Activity [13]: inactive
Activity [14]: Active
Activity [15]: Active
Activity [16]: Active
Activity [17]: Active
Activity [18]: inactive
Activity [19]: > 90%
Compound: COc1ccc(C(=O)N2CCC3(CCN(C(=O)CCCCCCCOc4cccc(Nc5[nH]nc(-c6ccc(NS(=O)(=O)C(F)F)cc6)c5C(N)=O)c4)CC3)CC2)cc1N1CCC(=O)NC1=O
Activity (HT-29 [2]): Non-Toxic
Activity (HT-29 [12]): Non-Toxic
EC50 (HT-29 [20]): 1200 nM
